Broadly, the Ki is the equilibrium dissociation constant of an inhibitor or competing ligand from its target. A word on the EC50: it is the concentration that produces a half-maximal response.

Each structure is given as a SMILES string. Activity calls are given as the source filed them. The calls are words filed in the database; no cut-off is given here.

Results on 5 compounds are retold here after ChEMBL document CHEMBL4007500, “Cyclic mu-opioid receptor ligands containing multiple N-methylated amino acid residues” (Bioorg Med Chem Lett, 2017).

In data set [1] the target is Kappa-type opioid receptor (Cavia porcellus, UniProt P41144). Briefly: Displacement of [3H]nor-BNI from KOR in Dunkin Hartley guinea pig brain homogenates after 180 mins by liquid scintillation counting analysis.
Chain of Kappa-type opioid receptor (P41144 whole entry): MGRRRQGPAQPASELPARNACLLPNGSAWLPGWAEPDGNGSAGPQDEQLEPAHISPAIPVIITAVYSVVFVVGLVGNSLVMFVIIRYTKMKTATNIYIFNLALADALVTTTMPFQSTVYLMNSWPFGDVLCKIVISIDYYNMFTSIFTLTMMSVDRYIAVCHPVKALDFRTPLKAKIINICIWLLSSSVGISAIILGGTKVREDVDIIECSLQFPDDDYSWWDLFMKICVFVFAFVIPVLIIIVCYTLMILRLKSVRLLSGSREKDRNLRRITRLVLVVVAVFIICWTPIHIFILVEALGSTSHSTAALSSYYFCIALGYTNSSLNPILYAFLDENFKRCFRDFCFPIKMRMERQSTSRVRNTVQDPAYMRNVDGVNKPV
Data set [2] has as its target Mu-type opioid receptor (Rattus norvegicus, UniProt P33535). In words: Displacement of [3H]DAMGO from MOR in Wistar rat brain homogenates after 180 mins by liquid scintillation counting analysis. In general terms: In a radioligand displacement assay an active substance lowers the binding of a labelled ligand.
Data set [3] concerns the target Delta-type opioid receptor (Rattus norvegicus, UniProt P33533). Briefly: Displacement of [3H][Ile5,6]deltorphin-2 from DOR in Wistar rat brain homogenates after 180 mins by liquid scintillation counting analysis.
Data set [4] in a line: Stability of compound in Wistar rat brain homogenate assessed as compound remaining at 0.5 mM after 90 mins by RP-HPLC analysis. The class given is ADME, tissue-based. To be noted: read-out: Stability.
For data set [5], the target named is Delta-type opioid receptor (Homo sapiens) (UniProt P41143). In words: Agonist activity at human recombinant DOR expressed in CHO cells assessed as calcium mobilization up to 1 uM by Fluo-4 AM based fluorescence analysis. The class given is functional, cell-based. Background: Calcium flux is commonly read through the fluorescence of an indicator in the cells.
Chain of Delta-type opioid receptor (Homo sapiens) (P41143 whole entry): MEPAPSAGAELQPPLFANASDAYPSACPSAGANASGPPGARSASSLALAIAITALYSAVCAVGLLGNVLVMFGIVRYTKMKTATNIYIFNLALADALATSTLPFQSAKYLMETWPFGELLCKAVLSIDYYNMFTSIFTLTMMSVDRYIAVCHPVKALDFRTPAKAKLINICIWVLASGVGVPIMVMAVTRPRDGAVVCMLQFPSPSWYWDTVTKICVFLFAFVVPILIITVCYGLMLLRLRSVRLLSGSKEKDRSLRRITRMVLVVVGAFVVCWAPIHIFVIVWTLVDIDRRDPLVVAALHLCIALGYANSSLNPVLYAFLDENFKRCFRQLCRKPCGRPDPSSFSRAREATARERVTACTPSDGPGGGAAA

Data set [6] deals with Kappa-type opioid receptor (Homo sapiens) (UniProt P41145). In words: Agonist activity at human recombinant KOR expressed in CHO cells assessed as calcium mobilization up to 1 uM by Fluo-4 AM based fluorescence analysis. It counts as functional, cell-based.
Chain of Kappa-type opioid receptor (Homo sapiens) (P41145 whole entry): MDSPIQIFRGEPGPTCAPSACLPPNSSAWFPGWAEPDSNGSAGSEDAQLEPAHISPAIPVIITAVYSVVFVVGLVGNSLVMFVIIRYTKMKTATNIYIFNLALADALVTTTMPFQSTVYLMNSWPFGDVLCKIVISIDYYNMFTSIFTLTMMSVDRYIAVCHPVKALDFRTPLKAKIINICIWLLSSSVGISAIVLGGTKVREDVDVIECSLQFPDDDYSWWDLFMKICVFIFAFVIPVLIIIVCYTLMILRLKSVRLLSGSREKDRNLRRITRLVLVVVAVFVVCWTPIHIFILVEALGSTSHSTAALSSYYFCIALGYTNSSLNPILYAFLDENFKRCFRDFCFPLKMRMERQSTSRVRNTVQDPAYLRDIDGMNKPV
For data set [7], the target named is T1, Mu-type opioid receptor (Homo sapiens, UniProt P35372). Briefly: Agonist activity at human recombinant MOR expressed in CHO cells assessed as calcium mobilization by Fluo-4 AM based fluorescence analysis. The class given is functional, cell-based.
T1 sequence (P35372 whole entry): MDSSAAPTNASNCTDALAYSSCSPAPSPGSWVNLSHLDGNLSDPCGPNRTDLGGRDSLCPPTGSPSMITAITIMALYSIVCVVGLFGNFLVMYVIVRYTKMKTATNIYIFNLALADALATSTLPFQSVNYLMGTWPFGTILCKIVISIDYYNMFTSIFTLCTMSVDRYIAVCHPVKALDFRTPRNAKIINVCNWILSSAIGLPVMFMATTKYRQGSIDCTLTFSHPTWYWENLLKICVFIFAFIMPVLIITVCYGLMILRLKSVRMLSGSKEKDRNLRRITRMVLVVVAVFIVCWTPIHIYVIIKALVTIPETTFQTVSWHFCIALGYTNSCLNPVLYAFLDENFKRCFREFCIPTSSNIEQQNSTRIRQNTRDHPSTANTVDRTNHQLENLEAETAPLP
Data set [8] deals with T1, Mu-type opioid receptor. Briefly: Agonist activity at human recombinant MOR expressed in CHO cells assessed as calcium mobilization by Fluo-4 AM based fluorescence analysis relative to EM2. The class given is functional, cell-based.

Chain of Mu-type opioid receptor (Rattus norvegicus, UniProt P33535) (P33535 whole entry): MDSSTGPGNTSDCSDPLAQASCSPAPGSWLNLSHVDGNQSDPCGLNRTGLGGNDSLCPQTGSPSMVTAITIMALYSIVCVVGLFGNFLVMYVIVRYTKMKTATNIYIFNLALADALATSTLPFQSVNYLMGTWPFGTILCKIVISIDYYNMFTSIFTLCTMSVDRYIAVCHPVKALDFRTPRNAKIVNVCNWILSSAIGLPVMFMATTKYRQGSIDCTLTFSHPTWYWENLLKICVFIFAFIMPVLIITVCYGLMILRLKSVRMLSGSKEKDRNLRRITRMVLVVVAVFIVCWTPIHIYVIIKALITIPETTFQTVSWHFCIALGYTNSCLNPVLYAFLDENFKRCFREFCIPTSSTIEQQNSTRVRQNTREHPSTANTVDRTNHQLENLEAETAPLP
Chain of Delta-type opioid receptor (P33533 whole entry): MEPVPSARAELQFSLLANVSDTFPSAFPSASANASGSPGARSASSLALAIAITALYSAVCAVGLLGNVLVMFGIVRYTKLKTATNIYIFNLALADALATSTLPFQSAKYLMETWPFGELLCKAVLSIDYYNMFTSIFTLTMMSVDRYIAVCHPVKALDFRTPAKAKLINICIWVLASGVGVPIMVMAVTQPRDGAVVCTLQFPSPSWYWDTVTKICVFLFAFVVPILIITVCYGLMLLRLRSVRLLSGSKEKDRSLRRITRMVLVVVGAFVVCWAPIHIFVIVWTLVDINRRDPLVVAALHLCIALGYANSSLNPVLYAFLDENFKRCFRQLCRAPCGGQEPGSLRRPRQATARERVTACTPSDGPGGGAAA

For the compound `CN[C@@H](Cc1ccc(O)cc1)C(=O)N[C@@H]1CCCCNC(=O)C[C@@H](C(N)=O)NC(=O)[C@H](Cc2ccccc2)N(C)C(=O)[C@H](Cc2ccccc2)N(C)C1=O`, the inhibition constant Ki entry (in data set [1]; at Mu-type opioid receptor [2]; in data set [3]) was “Nd(Insoluble)” each time. For the same compound, in data set [4], the remaining at 1.5 h, 500 µM was found to be 96.9%.

For the compound `CN[C@@H](Cc1ccc(O)cc1)C(=O)N[C@@H]1CCCCNC(=O)C[C@@H](C(N)=O)NC(=O)[C@H](Cc2ccccc2)N(C)C(=O)CNC(=O)[C@H](Cc2ccccc2)N(C)C1=O`, the Ki in data set [1] (read-out: Ki) was 519 nM; at Mu-type opioid receptor [2] (read-out: Ki) it was 76.5 nM; in data set [3] (read-out: Ki), over 1000 nM. The remaining at 1.5 h, 500 µM in data set [4] worked out at 97%.

For `CN[C@H](Cc1ccc(O)cc1)C(=O)N[C@H]1CCCCNC(=O)C[C@@H](C(N)=O)NC(=O)[C@H](Cc2ccccc2)N(C)C(=O)CNC(=O)[C@H](Cc2ccccc2)N(C)C1=O`, the outcome in data set [5] and in data set [6] was inactive. Further, the pEC50 entry at Mu-type opioid receptor [7] was “inactive”.

Consider `CN[C@@H](Cc1ccc(O)cc1)C(=O)N[C@@H]1CCCCNC(=O)C[C@@H](C(N)=O)NC(=O)CNC(=O)[C@H](Cc2ccccc2)N(C)C(=O)[C@H](Cc2ccccc2)N(C)C(=O)CNC1=O`, for which the outcome in data set [5] and in data set [6] was inactive. Besides, the inhibitory constant (Ki) is over 1000 nM in data set [1] (read-out: Ki), 106 nM on Mu-type opioid receptor [2] (read-out: Ki) and over 1000 nM in data set [3] (read-out: Ki). For the same compound, the pEC50 entry at Mu-type opioid receptor [7] is “inactive”. In addition, in data set [4], the remaining at 1.5 h, 500 µM amounted to 97.4%.

Consider `CN[C@@H](Cc1ccc(O)cc1)C(=O)N[C@@H]1CCCCNC(=O)C[C@@H](C(N)=O)NC(=O)[C@H](Cc2ccccc2)N(C)C(=O)[C@H](Cc2ccccc2)NC1=O`, for which the Intrinsic activity on Mu-type opioid receptor [8] is 0.93. Moreover, the result in data set [5] and in data set [6] was inactive. Besides, the inhibition constant Ki in data set [1] (read-out: Ki) is over 1000 nM; at Mu-type opioid receptor [2] (read-out: Ki) it was 0.73 nM; in data set [3] (read-out: Ki), over 1000 nM. Also, the EC50 at Mu-type opioid receptor [7] is 10.2 nM. For the same compound, the remaining at 1.5 h, 500 µM in data set [4] turned out to be 97.2%.
